Results: ChEMBL document CHEMBL1144381, “Synthesis and antimycobacterial activity of ferrocenyl ethambutol analogues and ferrocenyl diamines” (2005)

System: Mycobacterium tuberculosis
Assay: In vitro minimum inhibitory concentration measured against Mycobacterium tuberculosis H37Rv strain
Assay type: functional

Row | Molecule | MIC
1 | (cyclopenta-1,3-dien-1-ylmethyl)({3-[(cyclopenta-1,3-dien-1-ylmethyl)amino]propyl})amine bis(cyclopenta-1,3-diene) diiron | 8 µg/mL
2 | c1ccc(CNCCNCc2ccccc2)cc1 | > 64 µg/mL
3 | (1S)-2-({[6-({[(5R)-5-hydroxycyclopenta-1,3-dien-1-yl]methyl}amino)hexyl]amino}methyl)cyclopenta-2,4-dien-1-ol bis(cyclopenta-1,3-diene) diiron | > 64 µg/mL
4 | (cyclopenta-1,3-dien-1-ylmethyl)(hexyl)amine (cyclopenta-1,3-dien-1-ylmethyl)(methyl)amine bis(cyclopenta-1,3-diene) diiron | 32 µg/mL
5 | (cyclopenta-1,3-dien-1-ylmethyl)({2-[(cyclopenta-1,3-dien-1-ylmethyl)amino]ethyl})amine bis(cyclopenta-1,3-diene) diiron | 8 µg/mL
6 | (cyclopenta-1,3-dien-1-ylmethyl)({4-[(cyclopenta-1,3-dien-1-ylmethyl)amino]butyl})amine bis(cyclopenta-1,3-diene) diiron | 32 µg/mL
7 | (1S)-2-({[4-({[(5R)-5-hydroxycyclopenta-1,3-dien-1-yl]methyl}amino)butyl]amino}methyl)cyclopenta-2,4-dien-1-ol bis(cyclopenta-1,3-diene) diiron | > 64 µg/mL
